Measurements from PubChem BioAssay AID256 (DTP/NCI, 2004).
Toxic doses and inconclusive results are not listed. How the source made its calls: active means survival T/C of 150% or more; inactive means T/C below 125% in these data.

Tested on: CD2F1 mice, L1210 leukemia ip, survival T/C
Experiment: NCI In Vivo Anticancer Drug Screen. Data for tumor model L1210 Leukemia (intraperitoneal) in CD2F1 (CDF1) mice
Details: endpoint: mean survival time, higher = longer survival
Summary of the method: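 Antitumor effect is scored in animals hosting a serially transplanted tumor. Values compare compound-dosed animals against vehicle-only controls as a simple quotient.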

[1] = dose: 100.0 mg/kg/injection, schedule: Q04DX003 (ip), vehicle: saline with Tween-80
[2] = dose: 200.0 mg/kg/injection, schedule: Q04DX003 (ip), vehicle: saline with Tween-80
[3] = dose: 400.0 mg/kg/injection, schedule: Q04DX003 (ip), vehicle: saline with Tween-80
[4] = dose: 100.0 mg/kg/injection, schedule: Q01DX009 (ip), vehicle: saline with Tween-80
[5] = dose: 100.0 mg/kg/injection, schedule: Q04DX003 (ip), vehicle: saline sonified
[6] = dose: 200.0 mg/kg/injection, schedule: Q01DX009 (ip), vehicle: saline with Tween-80
[7] = dose: 200.0 mg/kg/injection, schedule: Q04DX003 (ip), vehicle: saline sonified
[8] = dose: 400.0 mg/kg/injection, schedule: Q01DX009 (ip), vehicle: saline with Tween-80
[9] = dose: 400.0 mg/kg/injection, schedule: Q04DX003 (ip), vehicle: saline sonified
[10] = dose: 75.0 mg/kg/injection, schedule: Q04DX003 (ip), vehicle: saline
[11] = dose: 150.0 mg/kg/injection, schedule: Q04DX003 (ip), vehicle: saline
[12] = dose: 300.0 mg/kg/injection, schedule: Q04DX003 (ip), vehicle: saline

Measured: T/C

O=C(/C=C/c1ccccc1)N1CCCCC1
inactive: [1] 98 % of control | [2] 89 % of control | [3] 94 % of control

CC(=O)Nc1ncc(CN2CCCCC2)s1
inactive: dose: 100.0 mg/kg/injection, schedule: Q04DX002 (ip), vehicle: Klucel (hydroxypropylcellulose) (HPC) 100 % of control | dose: 200.0 mg/kg/injection, schedule: Q04DX002 (ip), vehicle: Klucel (hydroxypropylcellulose) (HPC) 103 % of control

N/C(=C\C(=O)c1ccccc1)c1ccccc1
inactive: [1] 94 % of control | [2] 107 % of control | [3] 100 % of control

CC1(C)NC(=O)C2CC21C (stereo not drawn)
inactive: dose: 25.0 mg/kg/injection, schedule: Q04DX002 (ip), vehicle: saline 96 % of control | dose: 50.0 mg/kg/injection, schedule: Q04DX002 (ip), vehicle: saline 112 % of control | dose: 100.0 mg/kg/injection, schedule: Q04DX002 (ip), vehicle: saline 93 % of control

CC(=O)C1CC2c3ccccc3C1c1ccccc12 (stereo not drawn)
inactive: [4] 98 % of control | [5] 100 % of control | [6] 98 % of control | [7] 98 % of control | [8] 95 % of control | [9] 91 % of control

[Cl][Pt][Cl].c1ccc([PH+](CC[PH+](c2ccccc2)c2ccccc2)c2ccccc2)cc1
inactive: dose: 37.5 mg/kg/injection, schedule: Q04DX003 (ip), vehicle: saline 98 % of control | [10] 93 % of control | [11] 96 % of control | [12] 95 % of control

COc1ccc(CC(=O)O)cc1OC (tested in a mixture with another compound)
inactive: [4] 96 % of control | [5] 101 % of control | [6] 98 % of control | [7] 101 % of control | [8] 102 % of control | [9] 96 % of control

CC([NH-])C([NH-])O.O=[N+]([O-])O.O=[N+]([O-])O.[Pt+2] (stereo not drawn)
active: dose: 12.5 mg/kg/injection, schedule: Q04DX003 (ip), vehicle: saline 170 % of control | dose: 25.0 mg/kg/injection, schedule: Q04DX003 (ip), vehicle: saline 158 % of control

CC(=O)OC1C(N=[N+]=[N-])C(OC(C)=O)C(OC(C)=O)C(OC(C)=O)C1OC(C)=O (stereo not drawn)
inactive: dose: 100.0 mg/kg/injection, schedule: Q01DX001 (ip), vehicle: Klucel (hydroxypropylcellulose) (HPC) 93 % of control | dose: 200.0 mg/kg/injection, schedule: Q01DX001 (ip), vehicle: Klucel (hydroxypropylcellulose) (HPC) 95 % of control | dose: 400.0 mg/kg/injection, schedule: Q01DX001 (ip), vehicle: Klucel (hydroxypropylcellulose) (HPC) 103 % of control

CCCCCCCC(=O)Nc1ccc(C)cc1C
inactive: [4] 91 % of control | [6] 98 % of control | [8] 91 % of control

NC(=O)c1cc(=O)[nH]o1
inactive: [4] 102 % of control | [6] 96 % of control | [8] 107 % of control

O=C(Cc1ccccc1)NC(CSSCC(NC(=O)Cc1ccccc1)C(=O)O)C(=O)O (stereo not drawn)
inactive: [4] 101 % of control | [6] 98 % of control | [8] 93 % of control

[B-][N+]12CN3CN(CN(C3)C1)C2
inactive: dose: 75.0 mg/kg/injection, schedule: Q01DX001 (ip), vehicle: saline 101 % of control

CCSC(=S)S
inactive: [10] 104 % of control | [11] 98 % of control | [12] 104 % of control

CN(C)[C@@H]1C(=O)C(C(=O)NCNc2nc3n[nH]nc3c(=O)[nH]2)=C(O)[C@@]2(O)C(=O)C3=C(O)c4c(O)cccc4[C@@](C)(O)[C@H]3C[C@@H]12
inactive: dose: 50.0 mg/kg/injection, schedule: Q01DX009 (ip), vehicle: saline with Tween-80 117 % of control | [4] 123 % of control | [8] 94 % of control
